Measured values: ChEMBL document CHEMBL1201862, “PubChem BioAssay data set” (2004)
Activity calls are given as the source filed them.

Columns and labels:
Estrogen receptor beta [1] = biological target: T1, Estrogen receptor beta (Homo sapiens, UniProt Q92731); assay: blockers of SRC-3 recruitment to ERβ – biochemical, ELISA, streptavidin-HRP readout, orthogonal assay, confirmation (AID 1060)
Estrogen receptor beta [2] = biological target: T1, Estrogen receptor beta
[3] = biological target: Eukaryotic translation initiation factor 4E (Mus musculus, UniProt P63073); assay: blockers of eIF4G binding by eIF4E – biochemical, TR-FRET, dose response (AID 855); format: functional;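 note: potency for disrupting eIF4E binding to eIF4GI seen as loss of FRET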
[4] = biological target: T2, Rac GTPase-activating protein 1 (Homo sapiens, UniProt Q9H0H5); assay: blockers of MgcRacGAP-driven Rac1 GTP hydrolysis – biochemical, ADP Hunter fluorescence, primary and confirmatory, confirmation (AID 624330); format: functional
T2 sequence (Q9H0H5 whole entry): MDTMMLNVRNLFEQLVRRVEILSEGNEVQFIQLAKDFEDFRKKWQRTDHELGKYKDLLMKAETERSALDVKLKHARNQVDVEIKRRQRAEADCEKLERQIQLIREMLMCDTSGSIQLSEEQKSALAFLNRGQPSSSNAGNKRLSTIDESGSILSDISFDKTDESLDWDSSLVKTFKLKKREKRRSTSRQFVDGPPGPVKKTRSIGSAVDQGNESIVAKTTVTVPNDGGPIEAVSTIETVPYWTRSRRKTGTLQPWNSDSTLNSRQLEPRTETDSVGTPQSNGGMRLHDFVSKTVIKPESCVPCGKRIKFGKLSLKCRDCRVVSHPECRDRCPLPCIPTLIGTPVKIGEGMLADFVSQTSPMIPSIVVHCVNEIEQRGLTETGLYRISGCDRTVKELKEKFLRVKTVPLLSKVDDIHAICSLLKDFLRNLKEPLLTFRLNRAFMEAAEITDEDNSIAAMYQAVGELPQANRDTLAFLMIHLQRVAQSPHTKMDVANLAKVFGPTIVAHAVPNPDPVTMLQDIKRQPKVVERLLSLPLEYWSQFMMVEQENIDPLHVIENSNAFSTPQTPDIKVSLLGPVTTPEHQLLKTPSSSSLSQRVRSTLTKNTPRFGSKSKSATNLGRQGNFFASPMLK

Ephrin type-A receptor 4 = Ephrin type-A receptor 4 (Mus musculus, UniProt Q03137); assay: EphA4 ligand-binding antagonists – biochemical, colorimetric, mouse EphA4, primary screen (AID 689); format: functional
[5] = biological target: Induced myeloid leukemia cell differentiation protein Mcl-1 (Homo sapiens, UniProt Q07820); format: functional
[6] = biological target: T3, Carboxy-terminal domain RNA polymerase II polypeptide A small phosphatase 1 (Homo sapiens, UniProt Q9GZU7); assay: CTDSP1 inhibitors, concentration-response, biochemical, absorbance readout, ultra-high-throughput screen actives (AID 540297); format: functional
T3 sequence (Q9GZU7 whole entry): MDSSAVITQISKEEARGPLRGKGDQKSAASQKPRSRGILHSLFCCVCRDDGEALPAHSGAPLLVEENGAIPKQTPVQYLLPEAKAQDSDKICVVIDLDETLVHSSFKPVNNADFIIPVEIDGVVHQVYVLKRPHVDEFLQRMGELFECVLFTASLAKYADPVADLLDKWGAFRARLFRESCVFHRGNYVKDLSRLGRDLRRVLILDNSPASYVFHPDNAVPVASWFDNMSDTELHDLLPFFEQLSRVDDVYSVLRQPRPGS

[7] = biological target: DNA (cytosine-5)-methyltransferase 1 (Homo sapiens, UniProt P26358); assay: inhibition of DNA methylation by DNMT1 – biochemical, fluorescent molecular beacon, confirmation (AID 602386); format: functional
Fatty acid synthase [8] = biological target: T4, Fatty acid synthase (Homo sapiens, UniProt P49327); assay: inhibition of human FAS-TE enzyme activity – biochemical, endpoint fluorescence intensity, uHTS hits, dose response (AID 624327); format: functional;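 note: fluorescence from hydrolysis of an O-methyl fluorescein acyl ester substrate by the enzyme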
[9] = biological target: T5, Sphingosine 1-phosphate receptor 4 (Homo sapiens, UniProt O95977); assay: Fluorescence dose response cell-based high throughput screening assay for antagonists of the Sphingosine 1-Phosphate Receptor 4 (S1P4). [Related pubchem assays: 1524 (Confirmation in triplicates.), 1510 (Primary screen.)]; format: functional
T5 sequence (O95977 whole entry): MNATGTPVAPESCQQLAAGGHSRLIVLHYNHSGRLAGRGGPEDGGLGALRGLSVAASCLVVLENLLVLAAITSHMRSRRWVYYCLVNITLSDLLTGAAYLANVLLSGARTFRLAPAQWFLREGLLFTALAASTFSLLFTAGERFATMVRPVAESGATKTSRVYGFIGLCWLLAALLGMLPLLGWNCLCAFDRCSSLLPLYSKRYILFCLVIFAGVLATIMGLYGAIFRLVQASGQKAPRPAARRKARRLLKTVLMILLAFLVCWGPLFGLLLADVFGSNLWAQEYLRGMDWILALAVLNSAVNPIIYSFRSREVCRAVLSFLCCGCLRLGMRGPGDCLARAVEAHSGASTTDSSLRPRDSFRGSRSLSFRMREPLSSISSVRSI

[10] = biological target: Sphingosine 1-phosphate receptor 1 (Homo sapiens, UniProt P21453); format: functional;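 note: Tango beta-arrestin reporter U2OS cells stimulated with S1P near its EC80; inhibitor potency meaning antagonism of receptor activation by the natural agonist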
Protein RecA = biological target: T6, Protein RecA (Mycobacterium tuberculosis, UniProt P9WHJ3); assay: Fluorescence Cell-Free Homogeneous Dose Retest to Identify Inhibitors of RecA-Intein Splicing Activity. [Related pubchem assays (depositor defined):AID2097, AID2223, AID489010, AID492950]; format: functional
T6 sequence (P9WHJ3 whole entry): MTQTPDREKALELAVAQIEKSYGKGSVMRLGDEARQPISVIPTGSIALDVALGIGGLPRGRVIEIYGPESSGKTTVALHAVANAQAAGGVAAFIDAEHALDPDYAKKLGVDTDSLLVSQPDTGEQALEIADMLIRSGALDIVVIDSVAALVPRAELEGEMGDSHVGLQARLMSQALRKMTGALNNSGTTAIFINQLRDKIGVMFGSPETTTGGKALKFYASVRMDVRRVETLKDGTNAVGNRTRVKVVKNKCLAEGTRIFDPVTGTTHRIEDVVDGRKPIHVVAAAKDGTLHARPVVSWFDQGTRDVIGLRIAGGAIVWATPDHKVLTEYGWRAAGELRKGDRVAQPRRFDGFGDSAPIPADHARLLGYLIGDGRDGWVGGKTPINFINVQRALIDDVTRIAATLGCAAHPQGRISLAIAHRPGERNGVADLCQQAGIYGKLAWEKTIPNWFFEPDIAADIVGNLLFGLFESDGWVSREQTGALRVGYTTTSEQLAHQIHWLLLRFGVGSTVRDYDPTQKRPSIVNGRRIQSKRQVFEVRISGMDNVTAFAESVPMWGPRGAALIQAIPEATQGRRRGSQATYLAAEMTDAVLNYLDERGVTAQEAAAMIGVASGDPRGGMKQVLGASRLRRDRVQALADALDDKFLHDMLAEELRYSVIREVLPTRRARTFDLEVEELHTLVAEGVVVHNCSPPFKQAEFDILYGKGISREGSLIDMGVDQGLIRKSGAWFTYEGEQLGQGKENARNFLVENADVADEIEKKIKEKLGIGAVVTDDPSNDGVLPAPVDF

[11] = loss of viability in HepG2 cells – cell-based, CellTiter-Glo, cherry-picked, cytotoxicity control for Shn3 inhibitor project, dose response (AID 624134); format: functional
Fatty acid synthase [12] = biological target: T4, Fatty acid synthase; assay: inhibition of human FAS-TE enzyme activity – biochemical, kinetic fluorescence intensity, dose response (AID 624326); format: functional;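 note: rate of fluorescence rise from hydrolysis of a fluorogenic O-methyl fluorescein ester substrate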
[13] = non-specific 3'UTR reporter inhibition in Clone20-Shn3RL – cell-based, Renilla luciferase, cherry-picked, counter-screen for Shn3 inhibitor project, dose response (AID 624133); format: functional
[14] = biological target: T5, Sphingosine 1-phosphate receptor 4; assay: Late stage fluorescence dose response cell-based screening assay for antagonists of the Sphingosine 1-Phosphate Receptor 4 (S1P4). [Related pubchem assays: 1524 (Confirmation screen (S1P4 antagonists).), 1510 (Primary screen (S1P4 antagonists).), 1853 (Summary AID (S1P4 antagonists).), 1692 (Dose response screen (S1P4 antagonists).)]; format: functional
INS1 = assay: INS-1E survival protection against cytokine death – cell-based, luminescence, retest, dose response (AID 449756); format: functional; settings: Rattus norvegicus;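 note: cell death triggered by IL-1 beta plus TNF-alpha plus IFN-gamma mixture; protective hits raise ATP signal compared with cytokine alone wells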
[15] = biological target: Heat shock protein HSP 90-alpha (Homo sapiens, UniProt P07900); format: functional, organism-based
[16] = biological target: T7, Replicative DNA helicase DnaB (Mycobacterium tuberculosis, UniProt P9WMR3); assay: DnaB intein splicing inhibitors, dose response, biochemical, cell-free fluorescence (AID 449749); format: functional
T7 sequence (P9WMR3 whole entry): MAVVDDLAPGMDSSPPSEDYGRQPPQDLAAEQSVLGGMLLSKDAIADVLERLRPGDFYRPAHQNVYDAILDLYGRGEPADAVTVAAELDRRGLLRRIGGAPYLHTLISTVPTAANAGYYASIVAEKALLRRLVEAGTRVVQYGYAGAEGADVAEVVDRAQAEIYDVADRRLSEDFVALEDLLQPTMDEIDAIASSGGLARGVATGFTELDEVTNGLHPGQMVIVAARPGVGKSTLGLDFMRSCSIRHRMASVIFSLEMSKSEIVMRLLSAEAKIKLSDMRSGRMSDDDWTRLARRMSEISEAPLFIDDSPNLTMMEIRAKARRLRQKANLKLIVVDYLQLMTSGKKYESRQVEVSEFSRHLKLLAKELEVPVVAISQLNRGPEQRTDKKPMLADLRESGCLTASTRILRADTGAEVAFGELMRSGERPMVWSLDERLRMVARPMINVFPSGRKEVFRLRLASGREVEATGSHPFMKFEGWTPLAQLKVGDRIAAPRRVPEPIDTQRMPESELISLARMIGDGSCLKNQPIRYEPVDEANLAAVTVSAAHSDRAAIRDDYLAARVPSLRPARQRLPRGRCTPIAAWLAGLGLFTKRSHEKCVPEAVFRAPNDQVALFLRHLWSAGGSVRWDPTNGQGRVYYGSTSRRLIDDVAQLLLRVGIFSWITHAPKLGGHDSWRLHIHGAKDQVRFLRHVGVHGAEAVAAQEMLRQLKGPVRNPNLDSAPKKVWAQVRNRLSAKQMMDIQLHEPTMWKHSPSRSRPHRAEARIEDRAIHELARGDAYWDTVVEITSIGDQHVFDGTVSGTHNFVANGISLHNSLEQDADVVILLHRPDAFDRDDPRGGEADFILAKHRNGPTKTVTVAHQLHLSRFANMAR

[17] = reduction of Shn3 3'UTR-driven luciferase in osteoblasts – cell-based, Clone20 osteoblasts, firefly luciferase, cherry-picked, dose response (AID 624132); format: functional;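 note: firefly luciferase luminescence from reporter carrying the Shn3 3'UTR in osteoblasts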
[18] = Luminescent dose response cell-based high throughput screening assay for inhibitors of the Janus kinase 2 mutant JAK2V617F. [Related pubchem assays: 1446 (Primary screen.), 1521 (Confirmation assay.), 1486 (Counter screen.)]; format: functional
[19] = Luminescence-based dose response cell-based high throughput screening assay for cytotoxic compounds using the IEC-6 intestinal epithelial cell line. [Related pubchem assays: 1858 (Summary AID.), 1825 (Counterscreen.), 1907 (Confirmation screen.)]; format: functional
[20] = MIN6 cell viability loss – mouse insulinoma, cytotoxicity control, dose response (AID 2122); format: functional;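 note: confirmatory high-throughput counterscreen run to flag cytotoxic compounds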
[21] = decrease of insulin promoter-GFP reporter – imaging, high-content screening, mouse beta cells (AID 1628); format: functional; settings: MIN6
[22] = viability of uninfected HEp-2 cells – cell-based, HTS, cytotoxicity control for RSV inhibitor project, dose response (AID 2410); format: functional; settings: human respiratory syncytial virus
[23] = HIV-1 Vif–A3G interaction blockers – biochemical, TR-FRET, GST-Vif 1-94, biotin-A3G peptide, dose response retest, primary screen (AID 1117319); format: functional;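 note: TR-FRET signal of purified GST-Vif binding a biotinylated A3G peptide; inhibitors lower the FRET signal by blocking Vif and A3G binding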
[24] = biological target: 5-hydroxytryptamine receptor 1A (Homo sapiens, UniProt P08908); format: functional

T4 sequence (P49327 whole entry): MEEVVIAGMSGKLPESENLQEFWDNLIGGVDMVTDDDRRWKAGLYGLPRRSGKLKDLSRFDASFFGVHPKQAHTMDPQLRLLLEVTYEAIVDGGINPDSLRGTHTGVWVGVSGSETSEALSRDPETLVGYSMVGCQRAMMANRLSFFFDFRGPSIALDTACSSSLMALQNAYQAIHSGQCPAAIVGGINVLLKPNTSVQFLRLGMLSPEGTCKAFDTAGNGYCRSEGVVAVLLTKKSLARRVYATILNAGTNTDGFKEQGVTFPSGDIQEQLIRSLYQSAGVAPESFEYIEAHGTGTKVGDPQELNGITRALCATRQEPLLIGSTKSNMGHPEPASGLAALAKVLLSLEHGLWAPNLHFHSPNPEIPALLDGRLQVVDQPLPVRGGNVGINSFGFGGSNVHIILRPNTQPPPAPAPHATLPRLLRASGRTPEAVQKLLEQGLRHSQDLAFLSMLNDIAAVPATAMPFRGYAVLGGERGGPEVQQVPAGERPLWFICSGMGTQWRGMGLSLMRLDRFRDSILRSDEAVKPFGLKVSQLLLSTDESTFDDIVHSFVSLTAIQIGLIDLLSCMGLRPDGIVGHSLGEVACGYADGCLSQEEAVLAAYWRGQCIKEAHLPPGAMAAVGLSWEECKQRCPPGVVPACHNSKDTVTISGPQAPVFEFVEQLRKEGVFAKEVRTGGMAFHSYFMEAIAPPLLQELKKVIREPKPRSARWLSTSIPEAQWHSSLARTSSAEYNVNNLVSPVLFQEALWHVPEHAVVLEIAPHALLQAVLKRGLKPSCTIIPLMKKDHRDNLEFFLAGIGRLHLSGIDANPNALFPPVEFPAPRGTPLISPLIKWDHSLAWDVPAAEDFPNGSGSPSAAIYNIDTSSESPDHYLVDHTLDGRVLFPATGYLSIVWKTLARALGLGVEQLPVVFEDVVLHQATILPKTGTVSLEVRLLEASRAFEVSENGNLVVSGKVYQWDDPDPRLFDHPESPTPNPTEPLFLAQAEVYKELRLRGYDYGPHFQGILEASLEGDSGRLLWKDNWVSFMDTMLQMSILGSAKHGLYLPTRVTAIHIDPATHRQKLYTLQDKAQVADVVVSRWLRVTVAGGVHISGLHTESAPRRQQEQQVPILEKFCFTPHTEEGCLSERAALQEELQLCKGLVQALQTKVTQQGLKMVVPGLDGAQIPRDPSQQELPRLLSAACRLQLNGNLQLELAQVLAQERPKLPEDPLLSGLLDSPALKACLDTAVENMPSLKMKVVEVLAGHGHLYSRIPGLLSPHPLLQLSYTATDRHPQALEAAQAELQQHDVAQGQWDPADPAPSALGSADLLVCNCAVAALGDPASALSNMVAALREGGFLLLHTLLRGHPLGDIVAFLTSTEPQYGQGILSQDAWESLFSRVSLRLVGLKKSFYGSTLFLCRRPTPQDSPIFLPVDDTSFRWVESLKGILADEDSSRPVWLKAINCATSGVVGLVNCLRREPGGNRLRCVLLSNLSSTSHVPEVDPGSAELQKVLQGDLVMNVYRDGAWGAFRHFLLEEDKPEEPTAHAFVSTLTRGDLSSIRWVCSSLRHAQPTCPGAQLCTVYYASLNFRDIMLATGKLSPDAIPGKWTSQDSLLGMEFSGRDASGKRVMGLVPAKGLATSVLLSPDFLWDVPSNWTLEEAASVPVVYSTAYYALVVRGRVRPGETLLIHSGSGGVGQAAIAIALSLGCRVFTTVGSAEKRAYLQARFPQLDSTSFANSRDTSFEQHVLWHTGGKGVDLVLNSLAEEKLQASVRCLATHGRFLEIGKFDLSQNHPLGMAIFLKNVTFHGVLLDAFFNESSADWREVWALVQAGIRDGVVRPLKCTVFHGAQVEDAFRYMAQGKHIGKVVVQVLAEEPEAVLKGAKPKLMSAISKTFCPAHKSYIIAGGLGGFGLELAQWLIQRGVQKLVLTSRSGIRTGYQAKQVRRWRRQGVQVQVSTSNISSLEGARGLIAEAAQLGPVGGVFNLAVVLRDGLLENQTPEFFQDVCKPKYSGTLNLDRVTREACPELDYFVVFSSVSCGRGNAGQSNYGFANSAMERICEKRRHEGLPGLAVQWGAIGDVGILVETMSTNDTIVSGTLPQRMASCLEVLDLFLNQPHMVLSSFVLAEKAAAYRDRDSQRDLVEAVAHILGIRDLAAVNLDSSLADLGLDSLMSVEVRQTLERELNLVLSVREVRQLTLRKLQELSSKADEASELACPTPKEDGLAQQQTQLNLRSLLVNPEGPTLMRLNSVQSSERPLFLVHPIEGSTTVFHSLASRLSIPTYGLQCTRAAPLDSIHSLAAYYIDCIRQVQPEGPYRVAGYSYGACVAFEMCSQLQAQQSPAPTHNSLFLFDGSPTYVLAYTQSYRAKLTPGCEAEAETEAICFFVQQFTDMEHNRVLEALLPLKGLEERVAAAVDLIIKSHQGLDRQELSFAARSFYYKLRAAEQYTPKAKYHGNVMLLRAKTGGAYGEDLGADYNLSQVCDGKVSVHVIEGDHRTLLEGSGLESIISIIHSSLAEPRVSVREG
T1 sequence (Q92731 whole entry): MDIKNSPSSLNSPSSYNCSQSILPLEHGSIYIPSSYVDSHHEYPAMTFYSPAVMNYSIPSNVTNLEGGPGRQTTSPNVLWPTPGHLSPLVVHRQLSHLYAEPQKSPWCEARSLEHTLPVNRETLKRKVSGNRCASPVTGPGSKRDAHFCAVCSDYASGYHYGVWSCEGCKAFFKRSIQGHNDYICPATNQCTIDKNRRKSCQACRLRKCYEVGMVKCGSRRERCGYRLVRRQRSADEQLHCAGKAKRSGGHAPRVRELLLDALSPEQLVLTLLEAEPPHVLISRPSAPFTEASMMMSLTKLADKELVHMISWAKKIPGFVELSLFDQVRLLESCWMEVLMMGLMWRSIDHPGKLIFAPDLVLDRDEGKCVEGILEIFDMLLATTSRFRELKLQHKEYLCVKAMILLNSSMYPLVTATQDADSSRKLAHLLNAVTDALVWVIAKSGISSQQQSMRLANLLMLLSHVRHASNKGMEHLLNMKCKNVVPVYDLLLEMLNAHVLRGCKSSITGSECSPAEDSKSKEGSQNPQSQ
Sequence of Eukaryotic translation initiation factor 4E (P63073 whole entry): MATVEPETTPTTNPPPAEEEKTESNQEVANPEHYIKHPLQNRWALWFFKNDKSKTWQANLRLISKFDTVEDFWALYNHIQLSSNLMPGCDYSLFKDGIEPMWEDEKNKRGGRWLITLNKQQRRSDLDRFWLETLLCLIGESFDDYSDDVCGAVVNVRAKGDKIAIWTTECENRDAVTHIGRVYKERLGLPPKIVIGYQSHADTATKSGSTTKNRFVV
Sequence of Induced myeloid leukemia cell differentiation protein Mcl-1 (Q07820 whole entry, the tested form may be a part): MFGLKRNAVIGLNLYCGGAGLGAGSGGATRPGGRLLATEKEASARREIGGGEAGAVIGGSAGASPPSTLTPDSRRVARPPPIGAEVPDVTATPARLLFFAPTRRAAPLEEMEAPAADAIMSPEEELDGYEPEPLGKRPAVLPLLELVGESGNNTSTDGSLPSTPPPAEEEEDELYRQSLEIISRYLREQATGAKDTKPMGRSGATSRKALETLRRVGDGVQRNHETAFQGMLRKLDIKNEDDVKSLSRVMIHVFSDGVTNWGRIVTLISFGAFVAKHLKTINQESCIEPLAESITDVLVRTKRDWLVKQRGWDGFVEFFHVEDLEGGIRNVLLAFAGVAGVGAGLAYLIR
Sequence of Ephrin type-A receptor 4 (Q03137 whole entry): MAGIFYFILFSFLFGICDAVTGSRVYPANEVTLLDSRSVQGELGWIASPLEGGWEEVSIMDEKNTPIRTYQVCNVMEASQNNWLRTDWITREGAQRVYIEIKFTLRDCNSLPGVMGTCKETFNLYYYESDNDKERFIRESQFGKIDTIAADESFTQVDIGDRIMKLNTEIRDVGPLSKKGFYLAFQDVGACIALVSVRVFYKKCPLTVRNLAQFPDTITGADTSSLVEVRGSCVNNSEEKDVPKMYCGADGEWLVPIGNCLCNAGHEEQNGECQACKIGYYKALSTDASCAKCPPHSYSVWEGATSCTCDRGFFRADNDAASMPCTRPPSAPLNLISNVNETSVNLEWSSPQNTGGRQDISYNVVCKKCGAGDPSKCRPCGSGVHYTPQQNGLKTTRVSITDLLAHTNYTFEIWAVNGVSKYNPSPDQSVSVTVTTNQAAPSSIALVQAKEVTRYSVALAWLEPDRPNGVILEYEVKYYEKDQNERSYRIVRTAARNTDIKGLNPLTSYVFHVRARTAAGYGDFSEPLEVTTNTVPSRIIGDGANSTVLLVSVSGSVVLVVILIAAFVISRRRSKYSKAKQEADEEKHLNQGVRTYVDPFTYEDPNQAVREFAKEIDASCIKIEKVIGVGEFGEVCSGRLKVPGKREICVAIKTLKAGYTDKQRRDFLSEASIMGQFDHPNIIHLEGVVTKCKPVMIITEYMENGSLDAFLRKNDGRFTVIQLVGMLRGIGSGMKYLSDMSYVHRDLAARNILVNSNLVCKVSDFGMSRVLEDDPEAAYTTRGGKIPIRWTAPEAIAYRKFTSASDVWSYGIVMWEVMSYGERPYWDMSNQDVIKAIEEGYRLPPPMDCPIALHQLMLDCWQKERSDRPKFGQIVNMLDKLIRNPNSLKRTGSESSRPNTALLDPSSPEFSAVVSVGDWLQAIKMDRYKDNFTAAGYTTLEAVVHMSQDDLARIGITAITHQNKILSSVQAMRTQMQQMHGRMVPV
Sequence of Sphingosine 1-phosphate receptor 1 (P21453 whole entry): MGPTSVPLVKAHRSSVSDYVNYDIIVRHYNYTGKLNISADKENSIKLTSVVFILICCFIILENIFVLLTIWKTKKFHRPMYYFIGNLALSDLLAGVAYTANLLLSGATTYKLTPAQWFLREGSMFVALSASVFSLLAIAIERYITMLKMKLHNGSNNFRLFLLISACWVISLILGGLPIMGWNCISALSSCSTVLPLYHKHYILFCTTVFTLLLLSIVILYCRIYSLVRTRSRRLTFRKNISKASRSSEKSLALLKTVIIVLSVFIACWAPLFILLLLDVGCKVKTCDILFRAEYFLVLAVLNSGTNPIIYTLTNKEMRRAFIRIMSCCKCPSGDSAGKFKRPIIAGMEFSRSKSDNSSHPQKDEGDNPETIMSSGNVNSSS

SMILES: COc1ccc(Cc2nnc(NC(=O)Cc3cccs3)s2)cc1
- IC50 (Estrogen receptor beta [1]): 0.0725 µM (not active)
- IC50 (Estrogen receptor beta [2]): < 1.56 µM (active)
- IC50 [3]: 16.9 µM (active)
- IC50 [4]: 52 µM (active)
- IC50 (Ephrin type-A receptor 4): 13.6 µM (active)
- IC50 [5]: 1.59 µM (active)
- IC50 [6]: 2.82 µM (active)
- IC50 [7]: 4.47 µM (active)

SMILES: Cc1ccccc1CS(=O)(=O)c1nnc([C@H](Cc2ccccc2)NC(=O)OC(C)(C)C)o1
- IC50 (Fatty acid synthase [8]): 6.74 µM (active)
- IC50 [9]: 1.69 µM (active)
- IC50 [10]: > 49.8 µM (not active)
- EC50 (Protein RecA): 8.54 µM (active)
- AC50 [11]: > 70 µM (inactive)
- IC50 (Fatty acid synthase [12]): 8.22 µM (active)
- AC50 [13]: 8.32 µM (active)
- IC50 [14]: 3.49 µM (not active)
- AC50 (INS1): 8.99 µM (active)
- AC50 [15]: 24.1 µM (active)
- AC50 [16]: 3.51 µM (active)
- AC50 [17]: 1.23 µM (active)
- IC50 [18]: 0.695 µM (active)

SMILES: OC1=C2C(=Nc3cc4c(cc3C2c2ccc(F)cc2)OCO4)CO1 (configuration not stated)
- IC50 [19]: 0.112 µM (active)
- IC50 [20]: < 0.25 µM (active)
- IC50 [21]: 1.32 µM (active)

SMILES: O=C(Nc1ccc2c(c1)oc1ccccc12)c1cccnc1
- CC50 [22]: 46.2 µM (active)
- IC50 [23]: > 100 µM (active)

SMILES: COc1ccc(CN2CCN(c3ccccc3F)CC2)c(OC)c1
- EC50 [24]: > 50 µM (not active)
